Source: PubChem BioAssay AID256 (DTP/NCI, 2004)
“And” between values parts separate entries of the source, which are not always exact repeats. Equal values may be shown once. Inconclusive results and toxic doses are left out.

Tested on: CD2F1 mice, L1210 leukemia ip, survival T/C
Experiment: NCI In Vivo Anticancer Drug Screen. Data for tumor model L1210 Leukemia (intraperitoneal) in CD2F1 (CDF1) mice
Conditions: higher = longer survival
Method in brief: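 Antitumor effect is scored in animals hosting a serially transplanted tumor. Values compare compound-dosed animals against vehicle-only controls as a simple quotient.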

[1] = endpoint: mean survival time, dose: 100.0 mg/kg/injection, schedule: Q01DX009 (ip), vehicle: saline with Tween-80
[2] = endpoint: mean survival time, dose: 200.0 mg/kg/injection, schedule: Q01DX009 (ip), vehicle: saline with Tween-80
[3] = endpoint: mean survival time, dose: 400.0 mg/kg/injection, schedule: Q01DX009 (ip), vehicle: saline with Tween-80
[4] = endpoint: mean survival time, dose: 100.0 mg/kg/injection, schedule: Q01DX001 (ip), vehicle: saline with Tween-80
[5] = endpoint: mean survival time, dose: 200.0 mg/kg/injection, schedule: Q01DX001 (ip), vehicle: saline with Tween-80
[6] = endpoint: mean survival time, dose: 400.0 mg/kg/injection, schedule: Q01DX001 (ip), vehicle: saline with Tween-80
[7] = endpoint: mean survival time, dose: 100.0 mg/kg/injection, schedule: Q04DX003 (ip), vehicle: saline
[8] = endpoint: mean survival time, dose: 200.0 mg/kg/injection, schedule: Q04DX003 (ip), vehicle: saline
[9] = endpoint: mean survival time, dose: 400.0 mg/kg/injection, schedule: Q04DX003 (ip), vehicle: saline
[10] = endpoint: mean survival time, dose: 100.0 mg/kg/injection, schedule: Q04DX003 (ip), vehicle: saline with Tween-80
[11] = endpoint: mean survival time, dose: 200.0 mg/kg/injection, schedule: Q04DX003 (ip), vehicle: saline with Tween-80
[12] = endpoint: mean survival time, dose: 400.0 mg/kg/injection, schedule: Q04DX003 (ip), vehicle: saline with Tween-80
[13] = endpoint: mean survival time, dose: 50.0 mg/kg/injection, schedule: Q01DX009 (ip), vehicle: saline with Tween-80
[14] = endpoint: mean survival time, dose: 100.0 mg/kg/injection, schedule: Q01DX001 (ip), vehicle: saline
[15] = endpoint: mean survival time, dose: 200.0 mg/kg/injection, schedule: Q01DX001 (ip), vehicle: saline
[16] = endpoint: mean survival time, dose: 400.0 mg/kg/injection, schedule: Q01DX001 (ip), vehicle: saline
[17] = endpoint: mean survival time, dose: 100.0 mg/kg/injection, schedule: Q01DX009 (ip), vehicle: saline

CSc1ncnc2c1nnn2C1OC(COC(=O)c2ccccc2)C(OC(=O)c2ccccc2)C1OC(=O)c1ccccc1 (stereo unspecified)
T/C (endpoint: median survival time, dose: 12.5 mg/kg/injection, schedule: Q01DX005 (ip), vehicle: Klucel (hydroxypropylcellulose) (HPC)): 94 % of control
T/C (endpoint: median survival time, dose: 25.0 mg/kg/injection, schedule: Q01DX005 (ip), vehicle: Klucel (hydroxypropylcellulose) (HPC)): 104 % of control
T/C (endpoint: median survival time, dose: 50.0 mg/kg/injection, schedule: Q01DX005 (ip), vehicle: Klucel (hydroxypropylcellulose) (HPC)): 116 % of control and 123 % of control
T/C (endpoint: median survival time, dose: 100.0 mg/kg/injection, schedule: Q01DX005 (ip), vehicle: Klucel (hydroxypropylcellulose) (HPC)): 116 % of control
T/C (endpoint: median survival time, dose: 400.0 mg/kg/injection, schedule: Q01DX005 (ip), vehicle: Klucel (hydroxypropylcellulose) (HPC)): 164 % of control

O=C1c2c(O)ccc(Cl)c2C(=O)c2c(O)ccc(Cl)c21
T/C [1]: 95 % of control
T/C [2]: 93 % of control
T/C [3]: 97 % of control

O=C(OC1CC2CCC1C2Cl)c1ccc2ccccc2c1 (stereo unspecified)
T/C [4]: 93 % of control
T/C [1]: 91 % of control
T/C [5]: 89 % of control
T/C [2]: 93 % of control
T/C [6]: 95 % of control
T/C [3]: 95 % of control

Nc1cccc2c1C(=O)c1ccccc1C2=O
T/C (endpoint: mean survival time, dose: 100.0 mg/kg/injection, schedule: Q04DX003 (ip), vehicle: other): 97 % of control
T/C (endpoint: mean survival time, dose: 200.0 mg/kg/injection, schedule: Q04DX003 (ip), vehicle: other): 92 % of control
T/C (endpoint: mean survival time, dose: 400.0 mg/kg/injection, schedule: Q04DX003 (ip), vehicle: other): 95 % of control

O=C(NCCSC(=O)Nc1ccccc1)Nc1ccccc1
T/C [1]: 95 % of control
T/C [2]: 94 % of control
T/C [3]: 94 % of control

O=S1(=O)CC2(N3CCOCC3)CCCCC21 (stereo unspecified)
T/C [7]: 100 % of control
T/C [8]: 102 % of control
T/C [9]: 104 % of control

CN(C)c1ccc(/C=C(\C#N)c2ccc([N+](=O)[O-])cc2)c(Cl)c1
T/C [1]: 97 % of control
T/C [2]: 97 % of control
T/C [3]: 92 % of control

CCOC/C(O)=C(\C#N)c1ccc(Cl)cc1
T/C (endpoint: mean survival time, dose: 12.5 mg/kg/injection, schedule: Q01DX009 (ip), vehicle: other): 94 % of control and 104 % of control
T/C (endpoint: mean survival time, dose: 12.5 mg/kg/injection, schedule: Q04DX003 (ip), vehicle: other): 104 % of control
T/C (endpoint: mean survival time, dose: 25.0 mg/kg/injection, schedule: Q01DX001 (ip), vehicle: other): 93 % of control
T/C (endpoint: mean survival time, dose: 25.0 mg/kg/injection, schedule: Q01DX009 (ip), vehicle: other): 95 % of control and 100 % of control
T/C (endpoint: mean survival time, dose: 25.0 mg/kg/injection, schedule: Q04DX002 (ip), vehicle: other): 116 % of control and 111 % of control
T/C (endpoint: mean survival time, dose: 25.0 mg/kg/injection, schedule: Q04DX003 (ip), vehicle: other): 101 % of control
T/C (endpoint: mean survival time, dose: 50.0 mg/kg/injection, schedule: Q01DX001 (ip), vehicle: other): 100 % of control
T/C (endpoint: mean survival time, dose: 50.0 mg/kg/injection, schedule: Q01DX009 (ip), vehicle: other): 93 % of control and 95 % of control
T/C (endpoint: mean survival time, dose: 50.0 mg/kg/injection, schedule: Q04DX002 (ip), vehicle: other): 94 % of control and 99 % of control
T/C (endpoint: mean survival time, dose: 50.0 mg/kg/injection, schedule: Q04DX003 (ip), vehicle: other): 101 % of control

O=S(=O)(O)O.[NH-]CC1(C[NH-])CCCCC1.[Pt+2]
T/C (endpoint: mean survival time, dose: 25.0 mg/kg/injection, schedule: Q04DX003 (ip), vehicle: saline): 96 % of control
T/C (endpoint: median survival time, dose: 15.98 mg/kg/injection, schedule: Q04DX003 (ip), vehicle: dextrose): 108 % of control
T/C (endpoint: median survival time, dose: 18.0 mg/kg/injection, schedule: Q04DX003 (ip), vehicle: dextrose): 93 % of control
T/C (endpoint: median survival time, dose: 24.0 mg/kg/injection, schedule: Q04DX003 (ip), vehicle: dextrose): 105 % of control

COc1ccccc1/C(C)=N\NC(=O)c1ccccc1
T/C [1]: 94 % of control
T/C [10]: 94 % of control
T/C [2]: 96 % of control
T/C [11]: 98 % of control
T/C [12]: 104 % of control

O=c1cc(-c2ccccc2)nc2c(Cl)cc(Cl)cn12
T/C [4]: 96 % of control
T/C [5]: 93 % of control
T/C [6]: 96 % of control

O=C(O)c1cnc2cc(Cl)ccc2n1
T/C [13]: 103 % of control
T/C [1]: 103 % of control
T/C [10]: 98 % of control
T/C [11]: 100 % of control

CCCNCCNc1ccc(NCCNCCC)c2c1C(=O)c1ccccc1C2=O
T/C (endpoint: mean survival time, dose: 4.0 mg/kg/injection, schedule: Q01DX009 (ip), vehicle: acid diluted with saline): 100 % of control
T/C (endpoint: mean survival time, dose: 8.0 mg/kg/injection, schedule: Q01DX009 (ip), vehicle: acid diluted with saline): 110 % of control
T/C (endpoint: mean survival time, dose: 16.0 mg/kg/injection, schedule: Q01DX009 (ip), vehicle: acid diluted with saline): 110 % of control
T/C (endpoint: mean survival time, dose: 32.0 mg/kg/injection, schedule: Q01DX009 (ip), vehicle: acid diluted with saline): 93 % of control

C/C(=N\NC(N)=S)c1c(O)cc(C)[nH]c1=O
T/C [14]: 97 % of control
T/C [15]: 101 % of control
T/C [16]: 98 % of control

OCC1OC([Se])C(O)C(O)C1O.[CH3][Sb][CH3] (stereo unspecified)
T/C (endpoint: mean survival time, dose: 50.0 mg/kg/injection, schedule: Q01DX009 (ip), vehicle: Klucel (hydroxypropylcellulose) (HPC)): 88 % of control

c1ccc(OCCC[P+](c2ccccc2)(c2ccccc2)c2ccccc2)cc1
T/C (endpoint: mean survival time, dose: 10.0 mg/kg/injection, schedule: Q01DX009 (ip), vehicle: saline): 105 % of control
T/C (endpoint: mean survival time, dose: 20.0 mg/kg/injection, schedule: Q01DX009 (ip), vehicle: saline): 95 % of control
T/C (endpoint: mean survival time, dose: 25.0 mg/kg/injection, schedule: Q01DX009 (ip), vehicle: saline with Tween-80): 95 % of control
T/C (endpoint: mean survival time, dose: 25.0 mg/kg/injection, schedule: Q04DX003 (ip), vehicle: saline with Tween-80): 101 % of control
T/C [13]: 113 % of control
T/C (endpoint: mean survival time, dose: 50.0 mg/kg/injection, schedule: Q04DX003 (ip), vehicle: saline with Tween-80): 92 % of control
T/C [1]: 111 % of control
T/C [10]: 92 % of control

CCOC1=NN(c2ccccc2)C(=O)C1
T/C [10]: 97 % of control
T/C [11]: 100 % of control
T/C [12]: 103 % of control

CCCC/C=C\C=C/CCCC
T/C [4]: 102 % of control
T/C [5]: 102 % of control
T/C [6]: 94 % of control

O=C(NO)c1ccncc1
T/C (endpoint: mean survival time, dose: 50.0 mg/kg/injection, schedule: Q01DX001 (ip), vehicle: saline): 106 % of control
T/C [14]: 103 % of control
T/C [17]: 102 % of control
T/C [7]: 91 % of control
T/C [15]: 110 % of control
T/C (endpoint: mean survival time, dose: 200.0 mg/kg/injection, schedule: Q01DX009 (ip), vehicle: saline): 104 % of control
T/C [8]: 94 % of control
T/C [16]: 97 % of control
T/C (endpoint: mean survival time, dose: 400.0 mg/kg/injection, schedule: Q01DX009 (ip), vehicle: saline): 107 % of control
T/C [9]: 94 % of control

CC1(C)CC(=O)C2=C(C1)OC1(O)CC(C)(C)CC(=O)C1C2c1ccccc1Cl (stereo unspecified)
T/C [1]: 93 % of control
T/C [10]: 92 % of control
T/C [2]: 93 % of control
T/C [11]: 94 % of control
T/C [3]: 95 % of control
T/C [12]: 96 % of control

O=C(c1cccnc1)c1cn(C2OC(CO)C(O)C(O)C2O)c2ccccc12 (stereo unspecified)
T/C (endpoint: mean survival time, dose: 12.5 mg/kg/injection, schedule: Q01DX005 (ip), vehicle: other): 93 % of control
T/C (endpoint: mean survival time, dose: 25.0 mg/kg/injection, schedule: Q01DX005 (ip), vehicle: other): 97 % of control
T/C (endpoint: mean survival time, dose: 50.0 mg/kg/injection, schedule: Q01DX005 (ip), vehicle: other): 104 % of control
T/C (endpoint: mean survival time, dose: 100.0 mg/kg/injection, schedule: Q01DX005 (ip), vehicle: other): 97 % of control
T/C (endpoint: mean survival time, dose: 200.0 mg/kg/injection, schedule: Q01DX005 (ip), vehicle: other): 95 % of control

CC(C#N)(Cc1ccccc1)Nc1ccccc1 (stereo unspecified)
T/C [10]: 97 % of control
T/C [11]: 91 % of control

CC1OC(n2cc(C(N)=O)c3c(N)ncnc32)C(O)C1O (stereo unspecified)
T/C (endpoint: mean survival time, dose: 12.5 mg/kg/injection, schedule: Q01DX009 (ip), vehicle: saline): 103 % of control
T/C (endpoint: mean survival time, dose: 25.0 mg/kg/injection, schedule: Q01DX009 (ip), vehicle: saline): 103 % of control
T/C (endpoint: mean survival time, dose: 50.0 mg/kg/injection, schedule: Q01DX009 (ip), vehicle: saline): 103 % of control
T/C [17]: 105 % of control
